The text below walks through data of patent US20090264415A2 (priority 2004, published 2009).

Each structure is given as a SMILES string.

The test system of one assay is peripheral blood mononuclear cells (PBMC) stimulated with allogeneic PBMC or EBV-transformed human B cells (RPMI1788). Put plainly: Mixed lymphocyte reaction (MLR) assay. The conditions noted are these: 50% suppression of the MLR, [3H]-thymidine incorporation; read-out: MLR. Format: cell-based. The procedure:
Pyrido[3,2-d]pyrimidine derivatives were first dissolved (10 mM) in dimethyl-sulfoxide (hereinafter referred as DMSO) and further diluted in culture medium before use for the following in vitro experiments. […] Some pyrido[3,2-d]pyrimidine derivatives described herein were tested in the following mixed lymphocyte reaction (MLR) assay.
Peripheral blood mononuclear cells (hereinafter referred as PBMC) were isolated from heparinized peripheral blood by density gradient centrifugation over Lymphoprep (Nycomed, Maorstua, Norway). Allogeneic PBMC or Eppstein-Barr Virus-transformed human B cells [commercially available under the trade name RPM11788 (ATCC name CCL156)] which strongly express B7-1 and B7-2 antigens were used as stimulator cells after irradiation with 30 Gy. MLR was performed in triplicate wells. After 5 days incubation at 37° C., 1 μCi [^3H]-thymidine was added to each cup. After a further 16 hours incubation, cells were harvested and counted in a β-counter. Inhibition of proliferation by a compound described in some of the present examples was counted while using the formula: [formula] wherein cpm is the thymidine count per minute. The MLR assay is regarded by those skilled in the art as an in vitro analogue of the transplant rejection since it is based on the recognition of allogeneic major histocompatibility antigens on the stimulator leukocytes, by responding lymphocytes.
In general terms: Dividing cells build labelled thymidine or BrdU into new DNA.
Consider `COc1ccc(-c2ccc3nc(Cl)nc(N4CCN(C(=O)Nc5cccc(C)c5)CC4)c3n2)cc1OC` [Example 14], for which the IC50 came to 0.066 µM.
Same read-out and setting: for `COc1ccc(-c2ccc3nc(OCCOc4ccccc4)nc(N4CCN(C(=O)Nc5cccc(C)c5)CC4)c3n2)cc1OC` [Example 18] the value was 0.9 µM; for `COc1ccc(-c2ccc3nc(N)nc(N4CCN(C(=O)COc5ccccc5)CC4)c3n2)cc1OC` [Example 60, 2-amino-4-[(N-phenoxy-acetyl)-piperazin-1-yl]-6-(3,4-dimethoxyphenyl)-pyrido[3,2-d]pyrimidine], 0.053 µM; for `O=C(Nc1cccc(Cl)c1)N1CCN(c2ncnc3ccc(Cl)nc23)CC1` [Example 70, 4-[(N-3-chlorophenylcarbamoyl)-piperazin-1-yl]-6-chloro-pyrido[3,2-d]pyrimidine], 3.4 µM.
For `COc1ccc(-c2ccc3nc(N4CCOCC4)nc(N4CCN(C(=O)Nc5cccc(C)c5)CC4)c3n2)cc1OC` [Example 88], the IC50 was 0.4 µM.
Same read-out and setting: for `CCCCOc1nc(N2CCN(C(=O)Nc3cccc(C)c3)CC2)c2nc(-c3ccc(OC)c(OC)c3)ccc2n1` [Example 89, 2-butoxy-4-[(N-3-methyl-phenylcarbamoyl)-piperazin-1-yl]-6-(3,4-dimethoxyphenyl)-pyrido[3,2-d]pyrimidine] the value was 2 µM.
The same measure, in the same setting: for `COc1ccc(-c2ccc3nc(Nc4ccc(C)cc4)nc(N4CCN(C(=O)Nc5cccc(C)c5)CC4)c3n2)cc1OC` [Example 91, 2-(p-tolylamino)-4-[(N-3-methylphenylcarbamoyl)-piperazin-1-yl]-6-(3,4-dimethoxy-phenyl)-pyrido[3,2-d]pyrimidine] the value was 0.8 µM; for `COc1ccc(-c2ccc3nc(Nc4ccc(F)c(Cl)c4)nc(N4CCN(C(=O)Nc5cccc(C)c5)CC4)c3n2)cc1OC` [Example 92], 1.2 µM.
On to `COc1cc(-c2ccc3nc(N)nc(N4CCOCC4)c3n2)ccc1OC1CCCC1` [Example 98, 2-amino-4-(N-morpholino)-6-(4-cyclopentyloxy-3-methoxyphenyl)-pyrido[3,2-d]pyrimidine], for which the IC50 was 7.6 µM.
Turning to `COc1ccc(-c2ccc3ncnc(N4CCN(C(=O)Nc5ccc(F)cc5)CC4)c3n2)cc1OC` [Example 111, 4-[(N-4-fluorophenylcarbamoyl)-piperazin-1-yl]-6-(3,4-dimethoxyphenyl)-pyrido[3,2-d]pyrimidine], the IC50 is 0.03 µM.
Same read-out and setting: for `Nc1nc(N2CCN(CCOc3ccccc3)CC2)c2nc(-c3ccc(F)cc3)ccc2n1` [Example 205] the value was 5.5 µM.

Still in this assay, the particulars now being: Homo sapiens, RPMI-1788; 50% suppression of the MLR, [3H]-thymidine incorporation; read-out: MLR.
As to `Nc1nc(N2CCOCC2)c2nc(-c3ccc(Cl)c(Cl)c3)ccc2n1` [184/231, 2-amino-4-(morpholino)-6-(3,4-dichlorophenyl)-pyrido[3,2-d]pyrimidine], the IC50 came to 3.9 µM.
On the same count and under the same terms, in the case of `COc1ccc(Cl)c(Nc2nc(N)nc3ccc(-c4ccc(OC)c(OC)c4)nc23)c1` [Example 30, 2-amino-4-(2-chloro-5-methoxy-anilino)-6-(3,4-dimethoxyphenyl)pyrido[3,2-d]pyrimidine] it was 10 µM; in that of `COc1cc(-c2ccc3nc(N)nc(N)c3n2)ccc1O` [Example 93, 2,4-diamino-6-(4-hydroxy-3-methoxyphenyl)-pyrido[3,2-d]pyrimidine], 5.1 µM; in that of `CC(=O)Nc1nc(-c2nc[nH]n2)c2nc(-c3ccc(Cl)c(Cl)c3)ccc2n1` [Example 145, 2-acetamido-4-(1,2,4-triazolyl)-6-(3,4-dichloro-phenyl)pyrido-[3,2-d]pyrimidine], 5.3 µM.
Still for that read-out and setting: for `Nc1nc(N2CCN(C(=O)NCc3ccc(Cl)cc3)CC2)c2nc(-c3ccc(F)cc3)ccc2n1` [Example 189, 2-amino-4-[(N-4-chloro-benzylcarbamoyl)-piperazin-1-yl]-6-(4-fluorophenyl)-pyrido[3,2-d]pyrimidine] the value was 0.5 µM.
On the same count and under the same terms, in the case of `Nc1nc(N2CCN(C(=O)c3ccco3)CC2)c2nc(-c3ccc4c(c3)OCO4)ccc2n1` [Example 192, 2-amino-4-[N-(2-furoyl)-piperazin-1-yl]-6-(3,4-methylenedioxyphenyl)-pyrido[3,2-d]pyrimidine] it was 8.1 µM; in that of `Nc1nc(N2CCN(C(=O)c3ccco3)CC2)c2nc(-c3ccc4c(c3)OCCO4)ccc2n1` [Example 203, 2-amino-4-[N-(2-furoyl)-piperazin-1-yl]-6-(1,4-benzo-dioxane)-pyrido[3,2-d]pyrimidine], 5.7 µM; in that of `Nc1nc(N2CCN(c3ccc(F)cc3)CC2)c2nc(-c3ccc(F)cc3)ccc2n1` [Example 204, 2-amino-4-[N-(4-fluoro-phenyl)-piperazin-1-yl]-6-(4-fluorophenyl)-pyrido[3,2-d]pyrimidine], 6.4 µM.
On to `COc1ccc(-c2ccc3nc(N)nc(N4CC[C@H](NC(=O)Nc5cccc(C)c5)C4)c3n2)cc1OC` [Example 221], for which the IC50 was 1.3 µM.
Still for that read-out and setting: in the case of `Nc1nc(N2CCOCC2)c2nc(Cl)ccc2n1` [Example 230, 2-amino-6-chloro-4-morpholino-pyrido[3,2-d]pyrimidine] it was > 10 µM; in that of `COc1cccc(-c2ccc3nc(N)nc(N4CCOCC4)c3n2)n1` [Example 236, 2-amino-4-morpholino-6-(6-methoxy-2-pyridinyl)-pyrido[3,2-d]pyrimidine], 5.3 µM; in that of `Nc1nc(N2CCOCC2)c2nc(-c3ccc(F)c(Cl)c3)ccc2n1` [Example 242, 2-amino-4-morpholino-6-(3-chloro-4-fluorophenyl)-pyrido[3,2-d]pyrimidine], 2.6 µM.
On the same count and under the same terms, in the case of `Nc1nc(N2CCOCC2)c2nc(-c3ccc(F)cc3)ccc2n1` [Example 245, 2-amino-4-morpholino-6-(4-fluorophenyl)-pyrido[3,2-d]pyrimidine] it was 2.3 µM; in that of `COc1ccc(-c2ccc3nc(N)nc(N)c3n2)cc1OC` [Example 256, 2,4-diamino-6-(3,4-dimethoxyphenyl)-pyrido[3,2-d]pyrimidine], 0.6 µM.
Still for that read-out and setting: for `COc1ccc(-c2ccc3nc(N)nc(N4CC[C@@H](NC(=O)Nc5cccc(C)c5)C4)c3n2)cc1OC` [Example 260] the value was 2.1 µM; for `COc1ccc(-c2ccc3nc(N)nc(N4CCC(O)(c5ccc(Cl)cc5)CC4)c3n2)cc1OC` [Example 269, 2-amino-4-(4-chlorophenyl-4-hydroxypiperidin-1-yl)-6-(3,4-dimethoxyphenyl)-pyrido[3,2-d]pyrimidine], 3.1 µM.

The assay is the same for the next values; noted with them: Homo sapiens, RPMI-1788; MLR assay of example 319; read-out: MLR IC50.
Regarding `CC(C)(C)OC(=O)NC(Cc1ccc(Cl)cc1)C(=O)N1CCN(c2nc(N)nc3ccc(-c4ccc(F)cc4)nc23)CC1` (stereo in doubt) [Example 477, (S)-[2-{4-[2-amino-6-(4-fluorophenyl)-pyrido[3,2-d]pyrimidin-4-yl]-piperazin-1-yl}-1-(4-chlorobenzyl)-2-oxoethyl]-carbamic acid tert-butyl ester], the IC50 came out at 4.9 µM.
On the same count and under the same terms, in the case of `Nc1nc(N2CCN(C(=O)C(N)Cc3ccc(Cl)cc3)CC2)c2nc(-c3ccc(F)cc3)ccc2n1` (stereo in doubt) [Example 488, (S)-2-amino-4-{4-[3-(4-chlorophenyl)-2-aminopropionyl]piperazin-1-yl}-6-(4-fluorophenyl)-pyrido[3,2-d]pyrimidine] it was 4.3 µM; in that of `Nc1nc(N2CCN(C(=O)COc3ccc4ccccc4c3)CC2)c2nc(-c3ccc(F)cc3)ccc2n1` [Example 383, 2-amino-4-[4-(2-naphthoxyacetyl)piperazin-1-yl]-6-(4-fluorophenyl)-pyrido[3,2-d]pyrimidine], 0.5 µM.
The same measure, in the same setting: in the case of `Cc1cccc(OCC(=O)N2CCN(c3nc(N)nc4ccc(-c5ccc(F)cc5)nc34)CC2)c1` [Example 384, 2-amino-4-[4-(3-methylphenoxyacetyl)piperazin-1-yl]-6-(4-fluorophenyl)-pyrido[3,2-d]pyrimidine] it was 0.05 µM.
With `Nc1nc(N2CCN(C(=O)COc3cccc(Cl)c3)CC2)c2nc(-c3ccc(F)cc3)ccc2n1` [Example 385, 2-amino-4-[4-(3-chlorophenoxyacetyl)piperazin-1-yl]-6-(4-fluorophenyl)-pyrido[3,2-d]pyrimidine], the IC50 came out at 0.09 µM.
Same read-out and setting: for `Nc1nc(N2CCN(C(=O)COc3ccc(Cl)cc3Cl)CC2)c2nc(-c3ccc(F)cc3)ccc2n1` [Example 386, 2-amino-4-[4-(2,4-dichlorophenoxyacetyl)piperazin-1-yl]-6-(4-fluorophenyl)-pyrido[3,2-d]pyrimidine] the value was 0.4 µM; for `Nc1nc(N2CCN(C(=O)COc3ccc(F)cc3)CC2)c2nc(-c3ccc(F)cc3)ccc2n1` [Example 387, 2-amino-4-[4-(4-fluorophenoxyacetyl)piperazin-1-yl]-6-(4-fluorophenyl)-pyrido[3,2-d]pyrimidine], 0.2 µM; for `Nc1nc(N2CCN(C(=O)COc3ccc(Br)cc3)CC2)c2nc(-c3ccc(F)cc3)ccc2n1` [Example 388, 2-amino-4-[4-(4-bromophenoxyacetyl)piperazin-1-yl]-6-(4-fluorophenyl)-pyrido[3,2-d]pyrimidine], 0.05 µM.
Still for that read-out and setting: in the case of `COc1ccc(-c2ccc3nc(N)nc(N4CCN(C(=O)CC(C)(C)C)CC4)c3n2)cc1OC` [Example 392, 2-amino-4-[4-(3,3-dimethylbutyryl)piperazin-1-yl]-6-(3,4-dimethoxyphenyl)-pyrido[3,2-d]pyrimidine] it was 0.3 µM.
